# Target: T1, SHP2 full-length protein (Homo sapiens, UniProt Q06124)
# T1 construct: purchased BPS Bioscience #79330
# T1 sequence (Q06124 1-593): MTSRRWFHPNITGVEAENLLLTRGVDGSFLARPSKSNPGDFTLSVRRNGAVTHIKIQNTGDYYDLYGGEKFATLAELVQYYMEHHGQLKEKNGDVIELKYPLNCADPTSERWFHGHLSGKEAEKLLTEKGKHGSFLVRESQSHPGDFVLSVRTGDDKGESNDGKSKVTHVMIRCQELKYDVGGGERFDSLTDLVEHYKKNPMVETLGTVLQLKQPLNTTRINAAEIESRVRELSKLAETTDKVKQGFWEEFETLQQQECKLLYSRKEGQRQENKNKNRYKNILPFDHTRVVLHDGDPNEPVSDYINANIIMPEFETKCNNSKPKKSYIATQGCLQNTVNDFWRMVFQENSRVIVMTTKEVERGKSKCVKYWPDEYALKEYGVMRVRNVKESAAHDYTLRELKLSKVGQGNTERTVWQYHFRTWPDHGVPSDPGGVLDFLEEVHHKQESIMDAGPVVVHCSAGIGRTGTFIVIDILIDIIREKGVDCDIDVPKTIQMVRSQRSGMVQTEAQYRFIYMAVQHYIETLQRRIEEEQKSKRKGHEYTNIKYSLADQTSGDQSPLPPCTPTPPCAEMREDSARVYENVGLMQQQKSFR
# Assay: SHP2 allosteric inhibition experiment (Homogeneous Full Length SHP-2 Assay Kit)
# Type: biochemical
# Settings: full-length SHP2 0.06 nM with SHP-2 activating peptide; ten-point, 1 μM to 0.05 nM; read-out: IC50 Values of Compounds Inhibiting SHP2
row,IC50,Molecule
1,≤ 10 nM,"C[C@@H]1OCC2(CCN(c3cnc(Sc4cccc(-c5cncnc5)c4Cl)nc3)CC2)[C@@H]1N [Compound 103, (3S,4S)-8-(2-((2-chloro-3-(pyrimidine-5-yl)phenyl)mercapto)pyrimidine-5-yl)-3-methyl-2-oxa-8-azaspiro[4.5]decane-4-amine]"
2,≤ 10 nM,"C[C@@H]1OCC2(CCN(c3ccc4nc(Sc5cccc(NC(=O)c6cnccn6)c5Cl)ncc4n3)CC2)[C@@H]1N [Compound 86, N-(3-((6-((3S,4S)-4-amino-3-methyl-2-oxa-8-azaspiro[4.5]decane-8-yl)pyridinyl[3,2-d]pyrimidine-2-yl)mercapto)-2-chlorophenyl)pyrazine-2-carboxamide]"
3,≤ 10 nM,"C[C@@H]1OCC2(CCN(c3cnc4nc(Sc5cccc(-c6cnccn6)c5Cl)ncc4n3)CC2)[C@@H]1N [Compound 72, (3S,4S)-8-(2-((2-chloro-3-(pyrazine-2-yl)phenyl)mercapto)pteridine-6-yl)-3-methyl-2-oxa-8-azaspiro[4.5]decane-4-amine]"
4,≤ 10 nM,"C[C@@H]1OCC2(CCN(c3cnc4nc(Sc5cccc(NC(=O)c6cnccn6)c5Cl)ncc4n3)CC2)[C@@H]1N [Compound 84, N-(3-((6-((3S,4S)-4-amino-3-methyl-2-oxa-8-azaspiro[4.5]decane-8-yl)pteridine-2-yl)mercapto)-2-chlorophenyl)pyrazine-2-carboxamide]"
5,≤ 10 nM,"N-(3-((5-((3S,4S)-4-amino-3-methyl-2-oxa-8-azaspiro[4.5]decane-8-yl)pyridazine-3-yl) mercapto)-2-chlorophenyl)-2-hydroxy-4-oxa-6,7,8,9-tetrahydro-4H-pyridinyl[1,2-a]pyrimidine-3-carboxamide [Compound 136]"
6,10 to 100 nM,"C[C@@H]1OCC2(CCN(c3ncc(Sc4cccc(-c5ccn(C)n5)c4Cl)cn3)CC2)[C@@H]1N [Compound 111, (3S,4S)-8-(5-((2-chloro-3-(1-methyl-1H-pyrazole-3-yl)phenyl)mercapto)pyrimidine-2-yl)-3-methyl-2-oxa-8-azaspiro[4.5]decane-4-amine]"
7,≤ 10 nM,"CCn1ccc(-c2cccc(Sc3cnc4nc(N5CCC6(CC5)CO[C@@H](C)[C@H]6N)ncc4n3)c2Cl)n1 [Compound 67, (3S,4S)-8-(6-((2-chloro-3-(1-ethyl-1H-pyrazole-3-yl)phenyl)mercapto)pteridine-2-yl)-3-methylyl-2-oxa-8-azaspiro[4.5]decane-4-amine]"
8,≤ 10 nM,"CC(C)n1ccc(-c2cccc(Sc3ncc4nc(N5CCC6(CC5)CO[C@@H](C)[C@H]6N)ccc4n3)c2Cl)n1 [Compound 71, (3S,4S)-8-(2-((2-chloro-3-(1-isopropyl-1H-pyrazole-3-yl)phenyl)mercapto)pyridinyl[3,2-d]pyrimidine-6-yl)-3-methyl-2-oxa-8-azaspiro[4.5]decane-4-amine]"
9,≤ 10 nM,"CCn1ccc(-c2cccc(Sc3ncc4nc(N5CCC6(CC5)CO[C@@H](C)[C@H]6N)cnc4n3)c2Cl)n1 [Compound 66, (3S,4S)-8-(2-((2-chloro-3-(1-ethyl-1H-pyrazole-3-yl)phenyl)mercapto)pteridine-6-yl)-3-methylyl-2-oxa-8-azaspiro[4.5]decane-4-amine]"
10,≤ 10 nM,"C[C@@H]1OCC2(CCN(c3ncc(Sc4cccc(-c5cccnc5)c4Cl)cn3)CC2)[C@@H]1N [Compound 117, (3S,4S)-8-(5-((2-chloro-3-(pyridine-3-yl)phenyl)mercapto)pyrimidine-2-yl)-3-methyl-2-oxa-8-azaspiro[4.5]decane-4-amine]"
11,≤ 10 nM,"NC1c2cnccc2CC12CCN(c1ccc3c(=O)n(-c4cccc(Cl)c4Cl)c(=O)[nH]c3c1)CC2 (stereo in doubt) [Compound 6, (S)-7-(7-Amino-5,7-dihydrospiro [cyclopenta[c]pyridine-6,4′-piperidine]-1′-yl)-3-(2,3-dichlorophenyl)quinazoline-2,4(1H,3H)-dione]"
12,≤ 10 nM,"C[C@@H]1OCC2(CCN(c3cnc(Sc4cccc(NC(=O)c5c(O)nc6n(c5=O)CCCC6)c4Cl)nc3)CC2)[C@@H]1N [Compound 102, N-(3-((5-((3S,4S)-4-amino-3-methyl-2-oxa-8-azaspiro[4.5]decane-8-yl)pyrimidine-2-yl)mercapto)-2-chlorobenzene)-2-hydroxyl-4-oxa-6,7,8,9-tetrahydro-4H-pyridinyl[1,2-a]pyrimidine-3-carboxamide]"
13,≤ 10 nM,"C[C@@H]1OCC2(CCN(c3ncc4nc(Sc5cccc(-c6ccncn6)c5Cl)cnc4n3)CC2)[C@@H]1N [Compound 76, (3S,4S)-8-(6-((2-chloro-3-(pyrimidine-4-yl)phenyl)mercapto)pteridine-2-yl)-3-methyl-2-oxa-8-azaspiro[4.5]decane-4-amine]"
14,≤ 10 nM,"CCn1ccc(-c2cccc(Sc3nnc(N4CCC5(CC4)CO[C@@H](C)[C@H]5N)nn3)c2Cl)n1 [Compound 128, (3S,4S)-8-(3-((2-chloro-3-(1-ethyl-1H-pyrazole-3-yl)phenyl)mercapto)-tetrazine-6-yl)-3-methyl-2-oxa-8-azaspiro[4.5]decane-4-amine]"
15,≤ 10 nM,"C[C@@H]1OCC2(CCN(c3cnc4nc(Sc5cccc(-c6ccncn6)c5Cl)ncc4n3)CC2)[C@@H]1N [Compound 75, (3S,4S)-8-(2-((2-chloro-3-(pyrimidine-4-yl)phenyl)mercapto)pteridine-6-yl)-3-methyl-2-oxa-8-azaspiro[4.5]decane-4-amine]"
16,10 to 100 nM,"N[C@@H]1c2ccccc2CC12CCN(c1cnc3c(=O)n(-c4cccc(Cl)c4Cl)c(=O)[nH]c3n1)CC2 [Compound 13, (S)-7-(1-amino-1,3-dihydrospiro[indene-2,4′-piperidine]-1′-yl)-3-(2,3-dichlorophenyl) pteridine-2,4(1H,3H)-dione]"
17,10 to 100 nM,"C[C@@H]1OCC2(CCN(c3cnc(Sc4cccc(Nc5cnccn5)c4Cl)nc3)CC2)[C@@H]1N [Compound 109, (3S,4S)-8-(2-((2-chloro-3-(pyrazine-2-amino)phenyl)mercapto)pyrimidine-5-yl)-3-me thyl-2-oxa-8-azaspiro[4.5]decane-4-amine]"
18,≤ 10 nM,"C[C@@H]1OCC2(CCN(c3ccc4nc(Sc5cccc(-c6cnccn6)c5Cl)ncc4n3)CC2)[C@@H]1N [Compound 74, (3S,4S)-8-(2-((2-chloro-3-(pyrazine-2-yl)phenyl)mercapto)pyridinyl[3,2-d]pyrimidine-6-yl)-3-methyl-2-oxa-8-azaspiro[4.5]decane-4-amine]"
19,≤ 10 nM,"C[C@@H]1OCC2(CCN(c3cnc(Sc4cccc(-c5cccnc5)c4Cl)nc3)CC2)[C@@H]1N [Compound 105, (3S,4S)-8-(2-((2-chloro-3-(pyridine-3-yl)phenyl)mercapto)pyrimidine-5-yl)-3-methyl-2-oxa-8-azaspiro[4.5]decane-4-amine]"
20,≤ 10 nM,"C[C@@H]1OCC2(CCN(c3ncc(Sc4cccc(NC(=O)c5ncccn5)c4Cl)cn3)CC2)[C@@H]1N [Compound 123, N-(3-((2-((3S,4S)-4-amino-3-methyl-2-oxa-8-azaspiro[4.5]decane-8-yl I)pyrimidine-5-yl)mercapto)-2-chlorophenyl)pyrimidine-2-carboxamide]"
21,≤ 10 nM,"C[C@@H]1OCC2(CCN(c3ccc4c(=O)n(-c5cccc(Cl)c5Cl)c(=O)[nH]c4n3)CC2)[C@@H]1N [Compound 25, 7-((3S,4S)-4-amino-3-methyl-2-oxa-8-azaspiro[4.5]decane-8-yl)-3-(2,3-dichlorophenyl)pyridinyl[2,3-d]pyrimidine-2,4(1H,3H)-dione]"

# Reference: patent US20240270759A1, “Preparation of SHP2 phosphatase inhibitors and its applications” (Ya Therapeutics Inc, priority 2021, published 2024)
